# Starred links: 1 amine or outer side, 2 acyl side, 3 side chain; linkers in the order of their positions; H or OH if unused. Positions of bridges follow the written chain, without caps; N, C: chain ends. Non-standard residues stand in square brackets, D forms with d. Residues, ends and D or L forms follow the SMILES beside them. *: point of attachment. Bip(4'-NHCO-C6H4-3-CH2COOH) = N[C@@H](Cc1ccc(-c2ccc(NC(=O)c3cccc(CC(=O)O)c3)cc2)cc1)C(=O)O; Bip(4'-NHCO-C6H4-4-CH2COOH) = N[C@@H](Cc1ccc(-c2ccc(NC(=O)c3ccc(CC(=O)O)cc3)cc2)cc1)C(=O)O; dArg(Nω-CH2C6H4-3-CH2Gua) = N=C(N)NCc1cccc(CNC(=N)NCCC[C@@H](N)C(=O)O)c1; dArg(ω-(2S)-2,3-diOHpropyl) = N=C(NCCC[C@@H](N)C(=O)O)NC[C@H](O)CO; Bip(4'-NH) = O=C([C@H](Cc1ccc(-c2ccc(N[*:3])cc2)cc1)N[*:1])[*:2]; dArg(ω-Bn(3-CH2OH)) = N=C(NCCC[C@@H](N)C(=O)O)NCc1cccc(CO)c1; Indazole3carbonyl(1-CH2COOH) = O=C(O)Cn1nc(C(=O)*)c2ccccc21; Bip(4'-COOH) = N[C@@H](Cc1ccc(-c2ccc(C(=O)O)cc2)cc1)C(=O)O; Bip(4'-NHAc) = CC(=O)Nc1ccc(-c2ccc(C[C@H](N)C(=O)O)cc2)cc1; Ala(imidazol-2-yl) = N[C@@H](Cc1ncc[nH]1)C(=O)O; Ala(morpholin-4-yl) = N[C@@H](CN1CCOCC1)C(=O)O; Benzoyl(4-OCH2COOH) = O=C(O)COc1ccc(C(=O)*)cc1; Phe(3-CONH2) = NC(=O)c1cccc(C[C@H](N)C(=O)O)c1; Bip = N[C@@H](Cc1ccc(-c2ccccc2)cc1)C(=O)O; Val(3-OH) = CC(C)(O)[C@H](N)C(=O)O; 2Pal = N[C@@H](Cc1ccccn1)C(=O)O; 3Pal = N[C@@H](Cc1cccnc1)C(=O)O; Tic = O=C(O)[C@@H]1Cc2ccccc2CN1; 2Thi = N[C@@H](Cc1cccs1)C(=O)O; Sar = CNCC(=O)O
# Target: TNFα (Homo sapiens, UniProt P01375)
# Assay: TNF-Induced HEK-Blue Assay
# Format: cell-based
# Settings: not given
# TNFα, sequence (P01375 77-233 limits assumed): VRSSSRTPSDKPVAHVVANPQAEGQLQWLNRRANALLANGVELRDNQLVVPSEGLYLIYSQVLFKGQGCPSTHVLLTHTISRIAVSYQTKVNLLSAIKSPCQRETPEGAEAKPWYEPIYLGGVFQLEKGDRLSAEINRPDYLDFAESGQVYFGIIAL
row,SMILES,IC50
1,CC(C)C[C@@H]1NC(=O)[C@H](Cc2cccs2)NC(=O)[C@H](C(C)C)NC(=O)[C@@H]2CCCN2C(=O)[C@H](C(C)C)NC(=O)[C@@H](CCCNC(=N)NCc2cccc(CNC(=N)N)c2)NC(=O)[C@H](CC(=O)O)NC(=O)[C@H](Cc2ccccn2)NC(=O)CN(C)C(=O)[C@H](Cc2ccc(-c3ccc(NC(=O)c4nn(CC(=O)O)c5ccccc45)cc3)cc2)NC(=O)[C@H](Cc2ccc(-c3ccccc3)cc2)NC(=O)[C@H](CN2CCOCC2)NC(=O)CSC[C@@H](C(=O)NCC(N)=O)NC1=O [Example 623] ({CH2CO}-[Ala(morpholin-4-yl)][Bip][Bip(4'-NH)](Indazole3carbonyl(1-CH2COOH))[Sar][2Pal]D[dArg(Nω-CH2C6H4-3-CH2Gua)]VPV[2Thi]LCG-NH2; thioether N-13),< 0.05 µM

# Same assay, conditions: HEK-Blue-CD40L cells, NF-kB-driven secreted alkaline phosphatase reporter; TNFα 0.5 ng/ml; 18 h; read-out: TNF induced HEK-Blue assay IC50 value
row,IC50,SMILES
1,0.05 to 0.2 µM,CC(C)C[C@@H]1NC(=O)[C@H](Cc2ccc(O)cc2)NC(=O)[C@H](C(C)C)NC(=O)[C@@H]2CCCN2C(=O)[C@H](Cc2cccnc2)NC(=O)[C@H](CCCNC(=N)N)NC(=O)[C@H](CC(=O)O)NC(=O)[C@@H]2CCCN2C(=O)CN(C)C(=O)[C@H](Cc2ccc(-c3ccccc3)cc2)NC(=O)[C@H](Cc2ccc(-c3ccccc3)cc2)NC(=O)[C@H](CN2CCOCC2)NC(=O)CSC[C@@H](C(=O)NCC(N)=O)NC1=O [Example 116] ({CH2CO}-[Ala(morpholin-4-yl)][Bip][Bip][Sar]PDR[3Pal]PVYLCG-NH2; thioether N-13)
2,0.05 to 0.2 µM,CC(C)C[C@@H]1NC(=O)[C@H](CCCNC(=N)N)NC(=O)[C@H](C(C)C)NC(=O)[C@@H]2Cc3ccccc3CN2C(=O)[C@H](C(C)C)NC(=O)[C@H](CCCNC(=N)N)NC(=O)[C@H](CC(=O)O)NC(=O)[C@@H]2CCCN2C(=O)CN(C)C(=O)[C@H](Cc2ccc(-c3ccccc3)cc2)NC(=O)[C@H](Cc2ccc(-c3ccccc3)cc2)NC(=O)[C@H](CN2CCOCC2)NC(=O)CSC[C@@H](C(=O)NCC(N)=O)NC1=O [Example 71] ({CH2CO}-[Ala(morpholin-4-yl)][Bip][Bip][Sar]PDRV[Tic]VRLCG-NH2; thioether N-13)
3,< 0.05 µM,CC(C)C[C@@H]1NC(=O)[C@H](CCCNC(=N)N)NC(=O)[C@H](C(C)C)NC(=O)[C@@H]2CCCN2C(=O)[C@H](C(C)C)NC(=O)[C@@H](CCCNC(=N)NCc2cccc(CO)c2)NC(=O)[C@H](CC(=O)O)NC(=O)[C@@H]2CCCN2C(=O)CN(C)C(=O)[C@H](Cc2ccc(-c3ccc(NC(=O)c4ccc(OCC(=O)O)cc4)cc3)cc2)NC(=O)[C@H](Cc2ccc(-c3ccccc3)cc2)NC(=O)[C@H](CN2CCOCC2)NC(=O)CSC[C@@H](C(=O)NCC(N)=O)NC1=O [Example 500] ({CH2CO}-[Ala(morpholin-4-yl)][Bip][Bip(4'-NH)](Benzoyl(4-OCH2COOH))[Sar]PD[dArg(ω-Bn(3-CH2OH))]VPVRLCG-NH2; thioether N-13)
4,< 0.05 µM,CC[C@H](C)[C@@H]1NC(=O)[C@@H](CCCNC(=N)N)NC(=O)[C@H](CC(=O)O)NC(=O)[C@H](Cc2cnc[nH]2)NC(=O)CN(C)C(=O)[C@H](Cc2ccc(-c3ccc(NC(C)=O)cc3)cc2)NC(=O)[C@H](Cc2ccc(-c3ccccc3)cc2)NC(=O)[C@H](CN2CCOCC2)NC(=O)CSC[C@@H](C(=O)NCC(N)=O)NC(=O)[C@H](CC(C)C)NC(=O)[C@H](Cc2cnc[nH]2)NC(=O)[C@H](C(C)C)NC(=O)[C@@H]2CCCN2C1=O [Example 238] ({CH2CO}-[Ala(morpholin-4-yl)][Bip][Bip(4'-NHAc)][Sar]HD[dR]IPVHLCG-NH2; thioether N-13)
5,0.05 to 0.2 µM,CC(C)C[C@@H]1NC(=O)[C@H](CCCNC(=N)N)NC(=O)[C@H](C(C)C)NC(=O)[C@@H]2CCCN2C(=O)[C@H](C(C)C)NC(=O)[C@@H](CCCNC(=N)N)NC(=O)[C@H](CC(=O)O)NC(=O)[C@@H]2CCCN2C(=O)CN(C)C(=O)[C@H](Cc2ccc(-c3ccccc3)cc2)NC(=O)[C@H](Cc2ccc(-c3ccc(C(=O)O)cc3)cc2)NC(=O)[C@H](CN2CCOCC2)NC(=O)CSC[C@@H](C(=O)NCC(N)=O)NC1=O [Example 123] ({CH2CO}-[Ala(morpholin-4-yl)][Bip(4'-COOH)][Bip][Sar]PD[dR]VPVRLCG-NH2; thioether N-13)
6,0.05 to 0.2 µM,CC(C)C[C@@H]1NC(=O)[C@H](CCCNC(=N)N)NC(=O)[C@H](C(C)C)NC(=O)[C@H](Cc2ccccn2)NC(=O)[C@H](C(C)C)NC(=O)[C@H](CCCNC(=N)N)NC(=O)[C@H](CC(=O)O)NC(=O)[C@@H]2CCCN2C(=O)CN(C)C(=O)[C@H](Cc2ccc(-c3ccccc3)cc2)NC(=O)[C@H](Cc2ccc(-c3ccccc3)cc2)NC(=O)[C@H](C(C)(C)O)NC(=O)CSC[C@@H](C(=O)NCC(N)=O)NC1=O [Example 108] ({CH2CO}-[Val(3-OH)][Bip][Bip][Sar]PDRV[2Pal]VRLCG-NH2; thioether N-13)
7,< 0.05 µM,CC(=O)Nc1ccc(-c2ccc(C[C@@H]3NC(=O)[C@H](Cc4ccc(-c5ccccc5)cc4)NC(=O)[C@H](CN4CCOCC4)NC(=O)CSC[C@@H](C(=O)NCC(N)=O)NC(=O)[C@H](CC(C)C)NC(=O)[C@H](Cc4ncc[nH]4)NC(=O)[C@H](C(C)C)NC(=O)[C@@H]4CCCN4C(=O)[C@H](C(C)C)NC(=O)[C@@H](CCCNC(=N)N)NC(=O)[C@H](CC(=O)O)NC(=O)[C@H](Cc4cccs4)NC(=O)CN(C)C3=O)cc2)cc1 [Example 461] ({CH2CO}-[Ala(morpholin-4-yl)][Bip][Bip(4'-NHAc)][Sar][2Thi]D[dR]VPV[Ala(imidazol-2-yl)]LCG-NH2; thioether N-13)
8,0.05 to 0.2 µM,"CC(C)C[C@@H]1NC(=O)[C@H](Cc2cccc(C(N)=O)c2)NC(=O)[C@H](C(C)C)NC(=O)[C@@H]2CCCN2C(=O)[C@H](C(C)C)NC(=O)[C@@H](CCCNC(=N)NC[C@H](O)CO)NC(=O)[C@H](CC(=O)O)NC(=O)[C@H](Cc2ccc(O)cc2)NC(=O)CN(C)C(=O)[C@H](Cc2ccc(-c3ccc(NC(=O)c4ccc(CC(=O)O)cc4)cc3)cc2)NC(=O)[C@H](Cc2ccc(-c3ccccc3)cc2)NC(=O)[C@H](CN2CCOCC2)NC(=O)CSC[C@@H](C(=O)NCC(N)=O)NC1=O [Example 548] ({CH2CO}-[Ala(morpholin-4-yl)][Bip][Bip(4'-NHCO-C6H4-4-CH2COOH)][Sar]YD[dArg(ω-(2S)-2,3-diOHpropyl)]VPV[Phe(3-CONH2)]LCG-NH2; thioether N-13)"
9,0.05 to 0.2 µM,CC(C)C[C@@H]1NC(=O)[C@H](Cc2ccc(O)cc2)NC(=O)[C@H](C(C)C)NC(=O)CN(C)C(=O)[C@H](C(C)C)NC(=O)[C@@H](CCCNC(=N)N)NC(=O)[C@H](CC(=O)O)NC(=O)[C@@H]2CCCN2C(=O)CN(C)C(=O)[C@H](Cc2ccc(-c3ccccc3)cc2)NC(=O)[C@H](Cc2ccc(-c3ccccc3)cc2)NC(=O)[C@H](CN2CCOCC2)NC(=O)CSC[C@@H](C(=O)NCC(N)=O)NC1=O [Example 136] ({CH2CO}-[Ala(morpholin-4-yl)][Bip][Bip][Sar]PD[dR]V[Sar]VYLCG-NH2; thioether N-13)
10,< 0.05 µM,CC[C@H](C)[C@@H]1NC(=O)[C@@H](CCCNC(=N)N)NC(=O)[C@H](CC(=O)O)NC(=O)[C@H](Cc2cnc[nH]2)NC(=O)CN(C)C(=O)[C@H](Cc2ccc(-c3ccc(NC(=O)c4cccc(CC(=O)O)c4)cc3)cc2)NC(=O)[C@H](Cc2ccc(-c3ccccc3)cc2)NC(=O)[C@H](CN2CCOCC2)NC(=O)CSC[C@@H](C(=O)NCC(N)=O)NC(=O)[C@H](CC(C)C)NC(=O)[C@H](Cc2cnc[nH]2)NC(=O)[C@H](C(C)C)NC(=O)[C@@H]2CCCN2C1=O [Example 481] ({CH2CO}-[Ala(morpholin-4-yl)][Bip][Bip(4'-NHCO-C6H4-3-CH2COOH)][Sar]HD[dR]IPVHLCG-NH2; thioether N-13)
